Assay results: patent publication US20220332758A1, “PEPTIDE-BASED COMPOSITIONS AND METHODS FOR TREATING ALZHEIMER'S DISEASE” (Board of Regents, The Universityof Texas System, priority 2019, published 2022)

Experiments:
[1] = target: T1, purified human 20S proteasome (Homo sapiens, UniProt P25787+P60900); experiment: In-gel overlay activity on non-denaturing gel, 20S proteasome; format: biochemical; conditions: 1 microM, 15 min, 100 microM Suc-LLVY-MCA
T1 construct: purified from erythrocytes; purchased Boston Biochem, Inc. or Enzo Life Sciences, Inc; host or cells: human erythrocytes
Experimental: Purified human 20S and 26S proteasomes were separated on non-denaturing polyacrylamide gel. The gel was overlayed with reaction buffer containing 100 microM fluorogenic peptide substrate Suc-LLVY-MCA (SEQ ID NO: 14) and 1% of vehicle solvent (DMSO) or the substrate and 1 microM Tat1 8,9 TOD. The gel was photographed after 15 min of incubation and then stained for the total protein content with Coomassie Brilliant Blue, and photographed. […] The protein content was the same for the control and Tat-overlayed sets. The activities of both 26S and 20S are enhanced by Tat1 8,9 TOD. The enhanced activity of 26S was not the result of Tat1 8,9 TOD—induced breaking of the 26S assembly into its components (19S and 20S) and activation of the released 20S catalytic core that still remains in the gel together with the whole 26S assembly. […] Traces of the 20S in both control 26S preparation and preparation pre-incubated with Tat1 8,9 TOD.

20S proteasome = 20S proteasome (Homo sapiens, UniProt P25787+P60900); conditions: cited from earlier work

N=C(N)NCCCC(NC(=O)CN)C(=O)NC(CCCCN)C(=O)NC(CCCCN)C(=O)NC(CCCNC(=N)N)C(=O)NC(CCCNC(=N)N)C(=O)NC(CCC(N)=O)C(=O)N1Cc2ccccc2C[C@H]1C(=O)N1C(C(=O)NC(CCCNC(N)N)C(=O)N2CCCC2C(=O)NC(CO)C(=O)O)CC2CCCCC21 (some centres unmarked) [(5), GRKKRRQ-TOD-RPS]
20S activity in gel overlay [1]: enhanced | degradation by 20S proteasome (20S proteasome): resistant to degradation
